Results: patent US10626081B2, “Farnesoid X receptor agonists and uses thereof” (Metacrine, Inc., priority 2015, dated 2020)

Experiments:
[1] = target: T1, FXR (Homo sapiens, UniProt Q96RI1); assay: In Vitro FXR Assay (TK): TK-ECRE-luc reporter in transfected CV-1 cells; type: cell-based; details: CV-1 cells transfected with hFXR, hRXR, 18 h incubation, luminescence
T1 construct: expressed in transfected cells; host or cells: CV-1 cells
T1 sequence (Q96RI1 1-486): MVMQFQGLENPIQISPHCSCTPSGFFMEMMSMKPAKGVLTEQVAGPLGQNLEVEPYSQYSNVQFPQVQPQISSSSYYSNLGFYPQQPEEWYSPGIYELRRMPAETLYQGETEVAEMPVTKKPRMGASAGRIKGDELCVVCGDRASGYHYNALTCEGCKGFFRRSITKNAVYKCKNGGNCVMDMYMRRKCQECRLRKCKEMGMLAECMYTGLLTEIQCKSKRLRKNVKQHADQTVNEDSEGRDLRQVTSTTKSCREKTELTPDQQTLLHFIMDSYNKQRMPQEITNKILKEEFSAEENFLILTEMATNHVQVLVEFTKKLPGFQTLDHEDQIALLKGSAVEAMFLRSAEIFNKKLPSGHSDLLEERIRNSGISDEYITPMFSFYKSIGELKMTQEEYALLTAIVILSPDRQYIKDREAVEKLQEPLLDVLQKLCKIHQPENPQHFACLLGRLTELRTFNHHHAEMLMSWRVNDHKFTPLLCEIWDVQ
T1 sequence (P19793 1-462 partner): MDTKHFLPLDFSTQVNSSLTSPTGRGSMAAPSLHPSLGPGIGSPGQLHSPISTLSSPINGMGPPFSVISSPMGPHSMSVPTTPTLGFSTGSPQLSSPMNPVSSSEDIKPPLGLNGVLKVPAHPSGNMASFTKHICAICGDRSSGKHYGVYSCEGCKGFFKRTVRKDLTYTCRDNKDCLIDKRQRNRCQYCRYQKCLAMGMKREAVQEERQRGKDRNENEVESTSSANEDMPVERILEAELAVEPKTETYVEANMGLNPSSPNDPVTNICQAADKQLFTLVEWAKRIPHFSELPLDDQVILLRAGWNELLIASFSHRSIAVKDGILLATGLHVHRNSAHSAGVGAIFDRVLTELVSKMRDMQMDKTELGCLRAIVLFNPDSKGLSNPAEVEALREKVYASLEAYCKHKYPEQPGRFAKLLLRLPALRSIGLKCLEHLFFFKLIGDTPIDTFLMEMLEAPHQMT
How it was run: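 Luciferase read-out from lysed CV-1 cells exposed 18 h to DMSO-diluted compounds. Cells had been transfected overnight with expression plasmids for hFXR and hRXR plus TK-ECRE-luc reporter and pCMX-YFP, grown in charcoal-stripped serum at 37 °C, 5% CO2.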

[2] = target: T1, FXR; assay: In Vitro FXR Assay (PGL3): luciferase reporter in transfected CV-1 cells; type: cell-based; details: CV-1 cells transfected with hFXR, hRXR, PGL3-ECRE*6-luc; 18 h incubation; luminescence
How it was run: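 CV-1 cells in charcoal-stripped FBS were transiently co-transfected with full-length human FXR, RXR, an ECRE×6-luciferase reporter, β-gal and YFP plasmids. Transfected cells were reseeded onto half-log compound dilutions and incubated 18 h. Luciferase luminescence was read after lysis, and EC50 was determined.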

Row | Structure (SMILES) | EC50 [1] [nM] | Cmpd/Fex (ratio of the EC50 for the test compound relative to the EC50 of the Fexaramine control) [2]
1 | COC(=O)/C=C/c1cccc(N(Cc2ccc(-c3ccc(C(F)(F)F)cc3)cc2)C(=O)C2CCCCC2)c1 [compound 36, (E)-Methyl 3-(3-(N-((4′-(trifluoromethyl)-[1,1′-biphenyl]-4-yl)methyl)cyclohexanecarboxamido)phenyl)acrylate] | 1000 to 10000 | ++ (‘++’ means Cmpd/Fex > 10 & < 100)
2 | COC(=O)/C=C/c1cccc(N(Cc2ccc(-c3cccc(N(C)C)c3)cc2)C(=O)C2CCCCC2)c1 [compound 37, (E)-Methyl 3-(3-(N-((3′-(dimethylamino)-[1,1′-biphenyl]-4-yl)methyl)cyclohexanecarboxamido)phenyl) acrylate] | 1000 to 10000 | ++ (‘++’ means Cmpd/Fex > 10 & < 100)
3 | COC(=O)/C=C/c1cccc(N(Cc2ccc(-c3ccc(N(C)C)nc3)cc2)C(=O)C2CCCCC2)c1 [compound 38, (E)-Methyl 3-(3-(N-(4-(6-(dimethylamino)pyridin-3-yl)benzyl)cyclohexanecarboxamido)phenyl) acrylate] | ≤ 1000 | +++ (‘+++’ means Cmpd/Fex < 10)
4 | COC(=O)/C=C/c1cc(C)cc(N(Cc2ccc(-c3ccc(N(C)C)cc3)cc2)C(=O)C2CCCCC2)c1 [compound 39, (E)-Methyl 3-(3-(N-((4′-(dimethylamino)-[1,1′-biphenyl]-4-yl)methyl)cyclohexanecarboxamido)-5-methylphenyl)acrylate] | 1000 to 10000 | +++ (‘+++’ means Cmpd/Fex < 10)
5 | COC(=O)/C=C/c1cc(N(Cc2ccc(-c3ccc(N(C)C)cc3)cc2)C(=O)C2CCCCC2)ccc1C [compound 40, (E)-Methyl 3-(5-(N-((4′-(dimethylamino)-[1,1′-biphenyl]-4-yl)methyl)cyclohexanecarboxamido)-2-methylphenyl)acrylate] | > 10000 | + (‘+’ means Cmpd/Fex > 100)
6 | COC(=O)/C=C/c1cccc(N(Cc2ccc(-c3ccc(N(C)C)cc3)cc2)C(=O)C2CCCCC2)c1C [compound 41, (E)-Methyl 3-(3-(N-((4′-(dimethylamino)-[1,1′-biphenyl]-4-yl)methyl)cyclohexanecarboxamido)-2-methylphenyl)acrylate] | 1000 to 10000 | ++ (‘++’ means Cmpd/Fex > 10 & < 100)
7 | COC(=O)/C=C/c1ccc(C)c(N(Cc2ccc(-c3ccc(N(C)C)cc3)cc2)C(=O)C2CCCCC2)c1 [compound 42, (E)-Methyl 3-(3-(N-((4′-(dimethylamino)-[1,1′-biphenyl]-4-yl)methyl)cyclohexanecarboxamido)-4-methylphenyl)acrylate] | 1000 to 10000 | +++ (‘+++’ means Cmpd/Fex < 10)
8 | COC(=O)CCc1cccc(N(Cc2ccc(-c3ccc(N(C)C)cc3)cc2)C(=O)C2CCCCC2)c1 [compound 43, Methyl 3-(3-(N-((4′-(dimethylamino)-[1,1′-biphenyl]-4-yl)methyl)cyclohexanecarboxamido)phenyl) propanoate] | 1000 to 10000 | ++ (‘++’ means Cmpd/Fex > 10 & < 100)
9 | COC/C=C/c1cccc(N(Cc2ccc(-c3ccc(N(C)C)cc3)cc2)C(=O)C2CCCCC2)c1 [compound 44, (E)-N-((4′-(Dimethylamino)-[1,1′-biphenyl]-4-yl)methyl)-N-(3-(3-methoxyprop-1-en-1-yl)phenyl)cyclohexanecarboxamide] | 1000 to 10000 | +++ (‘+++’ means Cmpd/Fex < 10)
10 | COC(=O)/C=C(\C)c1cccc(N(Cc2ccc(-c3ccc(N(C)C)cc3)cc2)C(=O)C2CCCCC2)c1 [compound 45, (E)-Methyl 3-(3-(N-((4′-(dimethylamino)-[1,1′-biphenyl]-4-yl)methyl)cyclohexanecarboxamido)phenyl)but-2-enoate] | 1000 to 10000 | +++ (‘+++’ means Cmpd/Fex < 10)
11 | COC(=O)/C=C/c1cccc(N(C(=O)C2CCCCC2)C(C)c2ccc(-c3ccc(N(C)C)cc3)cc2)c1 (stereo not shown) [compound 46, (E)-Methyl 3-(3-(N-(1-(4′-(dimethylamino)-[1,1′-biphenyl]-4-yl)ethyl)cyclohexanecarboxamido)phenyl) acrylate] | 1000 to 10000 | ++ (‘++’ means Cmpd/Fex > 10 & < 100)

Other lines, results leading:

Row | EC50 [1] [nM] | Cmpd/Fex (ratio of the EC50 for the test compound relative to the EC50 of the Fexaramine control) [2] | Structure (SMILES)
12 | > 10000 | + (‘+’ means Cmpd/Fex > 100) | COC(=O)/C=C/c1cccc(N(Cc2ccc(-c3cccc(C(C)C)c3)cc2)C(=O)C2CCCCC2)c1 [compound 47, (E)-Methyl 3-(3-(N-((3′-isopropyl-[1,1′-biphenyl]-4-yl)methyl)cyclohexanecarboxamido)phenyl) acrylate]
13 | 1000 to 10000 | +++ (‘+++’ means Cmpd/Fex < 10) | COC(=O)/C=C/c1cccc(N(Cc2ccc(-c3ccc(N4CCCC4)cc3)cc2)C(=O)C2CCCCC2)c1 [compound 48, (E)-Methyl 3-(3-(N-((4′-(pyrrolidin-1-yl)-[1,1′-biphenyl]-4-yl)methyl)cyclohexanecarboxamido)phenyl) acrylate]
14 | 1000 to 10000 | + (‘+’ means Cmpd/Fex > 100) | COC(=O)/C=C/c1cccc(N(Cc2ccc(-c3ccc4[nH]ncc4c3)cc2)C(=O)C2CCCCC2)c1 [compound 49, (E)-Methyl 3-(3-(N-(4-(1H-indazol-5-yl)benzyl)cyclohexanecarboxamido)phenyl) acrylate]
15 | ≤ 1000 | +++ (‘+++’ means Cmpd/Fex < 10) | COC(=O)/C=C/c1cccc(N(Cc2ccc(-c3ccc(N(C)C)cc3)c(F)c2)C(=O)C2CCCCC2)c1 [compound 50, (E)-methyl 3-(3-(N-((4′-(dimethylamino)-2-fluoro-[1,1′-biphenyl]-4-yl)methyl)cyclohexanecarboxamido)phenyl) acrylate]
16 | ≤ 1000 | +++ (‘+++’ means Cmpd/Fex < 10) | COC(=O)/C=C/c1cccc(N(Cc2ccc(-c3ccc(N(C)C)cc3)cc2F)C(=O)C2CCCCC2)c1 [compound 51, (E)-methyl 3-(3-(N-((4′-(dimethylamino)-3-fluoro-[1,1′-biphenyl]-4-yl)methyl)cyclohexanecarboxamido)phenyl)acrylate]
17 | ≤ 1000 | +++ (‘+++’ means Cmpd/Fex < 10) | COC(=O)/C=C/c1cccc(N(Cc2ccc(-c3ccc(OC)c(C)c3)cc2)C(=O)C2CCCCC2)c1 [compound 52, (E)-Methyl 3-(3-(N-((4′-methoxy-3′-methyl-[1,1′-biphenyl]-4-yl)methyl)cyclohexanecarboxamido)phenyl) acrylate]
18 | 1000 to 10000 | +++ (‘+++’ means Cmpd/Fex < 10) | COC(=O)/C=C/c1cccc(N(Cc2ccc(-c3ccc(N(C)C)cc3)c(C)c2)C(=O)C2CCCCC2)c1 [compound 53, (E)-Methyl 3-(3-(N-((4′-(dimethylamino)-2-methyl-[1,1′-biphenyl]-4-yl)methyl)cyclohexanecarboxamido)phenyl) acrylate]
19 | ≤ 1000 | +++ (‘+++’ means Cmpd/Fex < 10) | COC(=O)/C=C/c1cccc(N(Cc2ccc(-c3ccc(N(C)C)cc3)cc2C)C(=O)C2CCCCC2)c1 [compound 54, (E)-Methyl 3-(3-(N-((4′-(dimethylamino)-3-methyl-[1,1′-biphenyl]-4-yl)methyl)cyclohexanecarboxamido)phenyl) acrylate]
20 | > 10000 | + (‘+’ means Cmpd/Fex > 100) | COC(=O)/C=C/c1cccc(N(Cc2ccc(-c3cccc(O)c3)cc2)C(=O)C2CCCCC2)c1 [compound 55, (E)-Methyl 3-(3-(N-((3′-hydroxy-[1,1′-biphenyl]-4-yl)methyl)cyclohexanecarboxamido)phenyl) acrylate]
